Data: PubChem BioAssay AID652171 (Broad Institute, 2013)

System: INS-1E cytokine-induced apoptosis, ATP luminescence, 48 h
Assay: inhibition of INS-1E apoptosis – cell-based, ATP luminescence, dry powder, mechanism study for beta-cell protection project, late-stage follow-up (AID 652171)

SMILES	inhibition of cytokine-induced cell death (at 20 µM (top of the series))	inhibition of cytokine-induced cell death (at 10 µM (top of the series))
C[C@@H]1CN([C@@H](C)COC(=O)NCCOCCOCCN)C(=O)c2cccc(NC(=O)Nc3cccc4ccccc34)c2O[C@H]1CN(C)S(=O)(=O)c1ccc2c(c1)OCCO2	102%	
C[C@@H]1CN([C@@H](C)CO)C(=O)c2cccc(NC(=O)Nc3cccc4ccccc34)c2O[C@H]1CN(C)S(=O)(=O)c1ccc2c(c1)OCCO2		90%
